Data from patent US11920158B2, “Cardiomyocyte maturation” (The Council of the Queensland Institute of Medical Research, priority 2016, dated 2024).
Like-named read-outs stand apart in the source and are kept apart here.

Tests used:
[1] = tested on: hPSC-CMs in human cardiac organoids (hCOs); experiment: Whole-mount immunostaining and image analysis of hCO (Ki-67, pH3, MLC2v, activated β-catenin, 8-OxoG, pATM, α-actinin, DNA); format: cell-based
Description: hCOs were fixed for 60 min with 1% paraformaldehyde (Sigma) at room temperature and washed 3× with PBS, after which they were incubated with primary antibodies (Table 1) in Blocking Buffer, 5% FBS and 0.2% Triton-X-100 (Sigma) in PBS overnight at 4° C. Cells were then washed in Blocking Buffer 2× for 2 h and subsequently incubated with secondary antibodies (Table 1) and Hoescht (1:1000) overnight at 4° C. They were washed in Blocking Buffer 2× for 2 h and imaged in situ or mounted on microscope slides using Fluoromount-G (Southern Biotech). For screening hCO were imaged using a Leica DMi8 high content imaging microscope for in situ imaging. Custom batch processing files were written in Matlab R2013a (Mathworks) to remove the background, calculate the image intensity, and export the batch data to an Excel (Microsoft) spreadsheet. For more detailed images an Olympus IX81 confocal microscope or a Nikon Diskovery Spinning Disk confocal microscope for mounted imaging. For cell cycle analysis experiments 3 random fields of view were imaged and manually quantified for proliferation. These were added together to calculate the percentage of hPSC-CM proliferation in each hCO.

[2] = tested on: human cardiac organoids (hCOs); experiment: Force analysis of hCO in Heart-Dyno (pole deflection, contraction parameters); format: cell-based; details: for EC50: read-out: calcium EC50 for force of contraction
Description: CTRL medium: α-MEM GlutaMAX (ThermoFisher Scientific), 10% fetal bovine serum (FBS) (ThermoFisher Scientific), 200 μM L-ascorbic acid 2 phosphate sesquimagnesium salt hydrate (Sigma) and 1% Penicillin/Streptomycin (ThermoFisher Scientific). For each hCO, 5×10^4 cardiac cells in CTRL medium were mixed with collagen I to make a 3.5 μl final solution containing 2.6 mg/ml collagen I and 9% Matrigel. The bovine acid-solubilized collagen I (Devro) was first salt balanced and pH neutralized using 10×DMEM and 0.1 M NaOH, respectively, prior to mixing with Matrigel and cells. The mixture was prepared on ice and pipetted into the Heart-Dyno. The Heart-Dyno was then centrifuged at 100×g for 10 s to ensure the hCO form halfway up the posts. The mixture was then gelled at 37° C. for 30 min prior to the addition of CTRL medium to cover the tissues (150 μl/hCO). The Heart-Dyno design facilitates the self-formation of tissues around in-built PDMS exercise poles (designed to deform ˜0.07 μm/μN). The medium was changed every 2-3 days (150 μl/hCO). hCOs were cultured in CTRL medium for formation and then changed to serum-free media as indicated for experiments. For all screening experiments, after hCO formation, hCOs were cultured in serum-free conditions comprising DMEM without glucose, glutamine and phenol red (ThermoFisher Scientific) supplemented with 4% B27 (with or without insulin) (ThermoFisher Scientific), 1% GlutaMAX (ThermoFisher Scientific), 200 μM L-ascorbic acid 2 phosphate sesquimagnesium salt hydrate and 1% Penicillin/Streptomycin (ThermoFisher Scientific). […] A timeline of the finalized hCO fabrication, culture and maturation protocol can be found in FIG. 1m.
The pole deflection was used to approximate the force of contraction. A Leica DMi8 inverted high content Imager was used to capture a 10 s time-lapse of each hCO contracting in real time at 37° C. Custom batch processing files were written in Matlab R2013a (Mathworks) to convert the stacked TIFF files to AVI, track the pole movement (using vision.PointTracker), determine the contractile parameters, produce a force-time figure, and export the batch data to an Excel (Microsoft) spreadsheet.
Custom batch processing files were written in Matlab R2013a (Mathworks) to convert the stacked TIFF files to AVI, track the pole movement (using vision.PointTracker), determine the contractile parameters, produce a force-time figure, and export the batch data to an Excel (Microsoft) spreadsheet. The follow formulae were used to determine the contractile force at each time-point. Maximum deflection at the end of a rectangular cantilever fixed at one end with force applied at a specified distance:
Based on the parameters of our system: E=1500 kPa, b=0.5 mm, h=0.2 mm, L=0.7 mm, and x=0.35 mm (hCO half-way up the poles), k=14 μN/μm.

adult cardiac muscle = details: ref (23), read-out: calcium EC50; cited from earlier work
[3] = tested on: human cardiac organoids (hCOs); experiment: ELISAs for lactate dehydrogenase and cardiac troponin I (cell viability of hCO); format: cell-based; details: addition of palmitate, serum-free culture of hCOs
[4] = tested on: human cardiac organoids (hCOs); experiment: hCO tissue viability (viable, intact and functional tissues); format: cell-based; details: prolonged presence within the maturation media

## Cc1c[nH]c(-c2cnc(NCCNc3ccc(C#N)cn3)nc2-c2ccc(Cl)cc2Cl)n1 [CHIR99021, reference compound]
[1]; hCOs cultured in MM, 24 h treatment
  proliferating (Ki-67) hPSC-CMs (α-actinin): blunted proliferative response
[1]; hCOs, 5 μm CHIR vs 0.05% DMSO
  proliferation (α-actinin and Ki-67 staining): pro-proliferative effects

## [Ca+2] [calcium]
[2]; hCOs cultured in CTRL medium
  EC50: 0.3 mM
[2]; hCOs cultured in MM
  EC50: 1 mM
Adult cardiac muscle
  EC50: 2.6 to 6 mM

## COc1cc(N)c(Cl)cc1C(=O)NC1CCN(CCCOc2ccc(F)cc2)CC1OC (centres unmarked) [cisapride, reference compound]
[2]; hCO, pro-arrhythmogenic compound with hERG toxicity
  relaxation time: prolong relaxation time

## CC(C)NCC(O)c1ccc(O)c(O)c1 (centres unmarked) [isoprenaline, reference compound]
[2]; hCOs cultured in MM, culture medium 1.8 mM Ca2+ (no increase in CTRL medium)
  force of contraction: increase in the force of contraction
[2]; hCOs in both CTRL medium and MM
  rate of contraction: increased the rate of contraction
[2]; paced 1 Hz at the calcium EC50, both CTRL medium and MM hCO
  50% contraction time: decreased 50% contraction time

## CCCCCCCCCCCCCCCC(=O)O [palmitate, palmitic acid]
[1]; addition of palmitate, serum-free with insulin, relative to 5.5 mM glucose without palmitate
  MLC2v expression: increased
[1]; palmitate, absence of insulin
  MLC2v expression: trend to increased MLC2v expression
[2]; 100 μM palmitate, absence of insulin, 0.5, 1 and 5.5 mM glucose
  hCO force of contraction: significantly higher forces
[2]; addition of 10 μM and 100 μM palmitate, serum-free conditions with insulin, vs 0 μM palmitate
  hCO force of contraction: trend to increase
[3]
  lactate dehydrogenase levels: unaffected

## TGF-β1: TGFβ-1 growth factor (Peprotech)
[4]
  cell death: significant cell death
[2]; 0, 1, 3 and 10 ng/ml, day 2-5, 2-7 and 2-9, H9-derived hCOs
  hCO function (force of contraction): detrimental to hCO function
[2]; prolonged presence within the maturation media
  contractile function: compromised the contractile function

## insulin: insulin, commonly used in serum-free medium supplements (B27 with insulin)
[1]; 48 h, regardless of glucose or palmitate
  activated β-catenin: highly dependent on insulin
[1]; addition of insulin after 11 days in MM
  re-activation of hPSC-CM proliferation (Ki-67): not sufficient to re-activate
[1]; serum-free conditions, 1 mM glucose and 10 μM palmitate
  hPSC-CM proliferation (Ki-67 expression): inducing hPSC-CM proliferation
